Data as given in patent US20090286878A1, “POLYOL DERIVED ANTI-MICROBIAL AGENTS AND COMPOSITIONS” (priority 2008, published 2009).

Assays:
Assay in all cases: Fungicidal activity, modified EN12175 test
Assay type in all cases: cell-based
Aspergillus niger = settings: 1% concentration; for A. niger log reduction 30 min: 30 min contact; for A. niger log reduction 30 min / A. niger log reduction 1 h / A. niger log reduction 24 h: vs water control; for A. niger log reduction 1 h: 1 h contact; for A. niger log reduction 24 h: 24 h contact; for A. niger cfu/mL (residual spore cell count): inoculum 2.60E+08 cfu/mL, room temperature
Procedure: (§1) Fungicidal activity is tested according to trivial modifications of the standard EN12175 test method. […] Penicillium funiculosum, Aspergillus niger and Aureobasidium pullulans are tested as important mold strains. The resulting cell count reduction is compared to a water control. […]

Aureobasidium pullulans = settings: 1% concentration; for A. pull. log reduction 30 min: 30 min contact; for A. pull. log reduction 30 min / A. pull. log reduction 1 h / A. pull. log reduction 24 h: vs water control; for A. pull. log reduction 1 h: 1 h contact; for A. pull. log reduction 24 h: 24 h contact; for A. pull. cfu/mL (residual spore cell count): inoculum 4.0E+06 cfu/mL, room temperature
Procedure: as §1

Penicillium funiculosum = settings: 1% concentration; for P. funic. log reduction 30 min: 30 min contact; for P. funic. log reduction 30 min / P. funic. log reduction 1 h / P. funic. log reduction 24 h: vs water control; for P. funic. log reduction 1 h: 1 h contact; for P. funic. log reduction 24 h: 24 h contact; for P. funic. cfu/mL (residual spore cell count): inoculum 3.60E+07 cfu/mL, room temperature
Procedure: as §1

Structure (SMILES)	A. niger log reduction 30 min (Aspergillus niger) [log]	A. niger log reduction 1 h (Aspergillus niger) [log]	A. niger log reduction 24 h (Aspergillus niger) [log]	A. niger cfu/mL (residual spore cell count) (Aspergillus niger) [cfu/mL]	A. pull. log reduction 30 min (Aureobasidium pullulans) [log]	A. pull. log reduction 1 h (Aureobasidium pullulans) [log]	A. pull. log reduction 24 h (Aureobasidium pullulans) [log]	A. pull. cfu/mL (residual spore cell count) (Aureobasidium pullulans) [cfu/mL]	P. funic. log reduction 30 min (Penicillium funiculosum) [log]	P. funic. log reduction 1 h (Penicillium funiculosum) [log]	P. funic. log reduction 24 h (Penicillium funiculosum) [log]	P. funic. cfu/mL (residual spore cell count) (Penicillium funiculosum) [cfu/mL]
CCCCCCCCCCCCNCCCCCC(=O)OCC(CC)(COC(=O)CCCCCNCCCCCCCCCCCC)COC(=O)CCCCCNCCCCCCCCCCCC [Ex 16]	>4	>4	>4	<10	>4	>4	>4	<10	>4	>4	>4	<10
CCCCCCCCNCCC(=O)OCC(CC)(COC(=O)CCNCCCCCCCC)COC(=O)CNCCCCCCCC [Ex 18]	>4	>4	>4	<10	>4	>4	>4	<10	>4	>4	>4	<10
